Values after ≈ are worked out from the molar mass of the structure shown.
Legend:
Apis mellifera = conditions: acute, mortality
Beta vulgaris = conditions: not reported; seedling emergence
Bibionidae = conditions: chronic/long-term; duration: 28 days; seedling emergence
Daphnia magna = conditions: chronic/long-term; duration: 21 days; reproduction
Mus musculus = conditions: acute; oral; mortality
Oncorhynchus mykiss = conditions: mortality
Oryctolagus sp. = conditions: developmental; development
Typhlodromus pyri = conditions: acute; duration: 7 days; mortality

## CC1(C)CCC(Cc2ccc(Cl)cc2)C1(O)Cn1cncn1 (stereo not given) [Metconazole]
Apis mellifera; duration: 72 hours, oral, unspecified
  LD50: > 85 µg/piece
Apis mellifera; duration: 96 hours, dermal
  LD50: > 100 µg/piece
Beta vulgaris
  NOEC: 96 g/ha
Bibionidae
  NOEC: 2.12 mg/L
Bird; acute, oral, unspecified, mortality
  LD50: 787 mg/kg
Bird; reproductive, duration: 22 weeks
  NOEC: 6.19 mg/kg-day
Bird; short-term, oral, feed, mortality
  LC50: 168 mg/kg-day
Daphnia magna
  NOEC: 0.16 mg/L
Mus musculus
  LD50: 410 mg/kg
Oncorhynchus mykiss; acute, duration: 72 hours
  LC50: 2.1 µg/mL (≈ 6.57 µM)
Oncorhynchus mykiss; chronic/long-term, duration: 95 days
  NOEC: 0.00291 mg/L
Oryctolagus sp.
  NOAEL: 4 mg/kg-day
Tagia sp.; acute, duration: 14 days, mortality
  LC50: > 1000 mg/kg
Tagia sp.; chronic/long-term, reproduction
  NOEC: 1.8 mg/kg
Typhlodromus pyri
  LEL: 180 g/ha

Source: EPA's ToxValDB 9.5 (doi:10.2903/j.efsa.2006.64r)
